From patent publication US20060099267A1, “High-dosage extended-release formulation of gepirone” (Fabre-Kramer Pharmaceuticals, Inc., priority 2004, published 2006)
Counter-ions that a name gives are not always drawn.

What was measured:
[1] = in vivo; cited from earlier work
[2] = system: presynaptic α-2-adrenoceptor; details: cited from earlier work
[3] = target: T1, 5-HT1A receptors (Homo sapiens, UniProt P08908); details: cited from earlier work
T1 sequence (P08908 1-422): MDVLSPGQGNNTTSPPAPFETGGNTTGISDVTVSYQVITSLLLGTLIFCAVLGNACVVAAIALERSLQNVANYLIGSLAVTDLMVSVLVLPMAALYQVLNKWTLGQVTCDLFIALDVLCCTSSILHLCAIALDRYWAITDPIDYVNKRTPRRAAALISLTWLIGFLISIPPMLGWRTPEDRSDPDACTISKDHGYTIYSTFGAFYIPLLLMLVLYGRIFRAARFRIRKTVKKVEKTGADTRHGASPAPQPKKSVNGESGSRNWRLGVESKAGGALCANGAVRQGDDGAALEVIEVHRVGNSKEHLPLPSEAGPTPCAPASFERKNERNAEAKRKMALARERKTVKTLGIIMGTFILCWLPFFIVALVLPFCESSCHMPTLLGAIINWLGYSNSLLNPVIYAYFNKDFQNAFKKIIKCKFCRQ

[4] = system: post-synaptic receptors in the hippocampus; details: cited from earlier work
[5] = Open label, randomized, four-way crossover, single dose bioequivalence and pharmacokinetic study of extended-release gepirone tablets; format: in vivo, human; details: 40-80 mg dose range
Description: Heretofore, efficacy and pharmacokinetic data for extended release gepirone tablets have been primarily obtained by administering one or multiple 20-mg extended-release gepirone tablets (similar to that described in the Preparation Example above).
To this end, an open label, randomized, four-way crossover, single dose study design was used with a washout phase of one week between different treatments. During each study period, the subjects were hospitalized from the afternoon before until 36 hours after gepirone administration. Following discharge, blood sample collections were taken at 48, 60, and 72 hours post-administration. […]
To determine the bioequivalence of one 80-mg extended-release gepirone tablet versus four 20-mg extended-release gepirone tablets the following pharmacokinetic parameter were calculated for each subject and treatment: • tmax (TMAX) • The actual time of occurrence of Cmax. • Cmax (CMAX) • The measured maximum concentration in plasma after single dosing. • dn-Cmax (DCMAX) • The dose-normalized Cmax was calculated as Cmax/Dose. • λZ (LZ) and t1/2 (THALF) • The slope (β) of the terminal log-linear phase of the concentration-versus-time curve was determined by linear regression. […] The terminal elimination rate constant (λZ) was defined as −β from which the elimination half-life (t1/2) was calculated as […]. […]

[6] = immediate-release formulations; cited from earlier work
[7] = immediate-release formulations; cited from earlier work; remark: listed apart in the source

Row | Structure (SMILES) | antidepressant-like characteristics in pre-clinical tests [1] | activity at presynaptic α-2-adrenoceptor [2] | affinity for 5-HT1A receptors [3] | agonism at post-synaptic receptors in the hippocampus [4] | dose proportionality [5] | time to maximum drug concentration of gepirone in the bloodstream (Tmax) [6] | T50 (time until 50% of the drug has been released under controlled in vitro conditions) [7] [h]
1 | c1cnc(N2CCNCC2)nc1 [1-PP, 1-(2-pyrimidinyl)piperazine] | did not exhibit antidepressant-like characteristics | antagonist |  |  |  |  | 
2 | CC1(C)CC(=O)N(CCCCN2CCN(c3ncccn3)CC2)C(=O)C1O (centres unmarked) [3′-OH gepirone] |  |  | significant affinity | full agonism |  |  | 
3 | CC1(C)CC(=O)N(CCCCN2CCN(c3ncccn3)CC2)C(=O)C1 [gepirone, 4,4-dimethyl-1-[4-[4-(2-pyrimidinyl)-1-piperazinyl]-butyl]-2,6-piperidinedione hydrochloride] |  |  |  | partial agonist | dose proportionality | about 1 hour | 2.5 to 3
